What was measured:
Rattus norvegicus = species on record: Rattus norvegicus; experiment: Testosterone Eurofins-Panlabs radioligand binding assay; parameters: ligand concentration 1.5 nM; details: Compound concentration 10.0 uM
[1] = biological target: T1, D(4) dopamine receptor (Homo sapiens) (UniProt P21917); experiment: Inhibition of Dopamine D4.2 at 10 µM in the Eurofins-Panlabs radioligand binding assay (Eurofins_assay_219900); parameters: ligand concentration 0.5 nM; details: Compound concentration 10.0 uM
T1 sequence (whole entry): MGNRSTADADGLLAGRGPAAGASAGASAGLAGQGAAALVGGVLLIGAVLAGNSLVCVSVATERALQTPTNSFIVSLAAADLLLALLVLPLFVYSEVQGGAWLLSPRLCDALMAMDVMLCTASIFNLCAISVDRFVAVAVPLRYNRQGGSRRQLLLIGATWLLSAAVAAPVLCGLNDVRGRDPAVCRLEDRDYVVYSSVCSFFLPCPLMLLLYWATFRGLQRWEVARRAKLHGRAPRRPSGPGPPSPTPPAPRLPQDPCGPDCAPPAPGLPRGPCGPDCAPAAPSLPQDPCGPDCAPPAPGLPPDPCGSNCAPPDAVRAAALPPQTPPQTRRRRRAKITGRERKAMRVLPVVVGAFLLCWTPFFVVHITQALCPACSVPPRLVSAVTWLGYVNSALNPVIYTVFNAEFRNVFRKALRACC

[2] = biological target: D(2) dopamine receptor (Homo sapiens) (UniProt P14416); details: Compound concentration 10.0 uM
[3] = biological target: Estrogen receptor (Homo sapiens) (UniProt P03372); details: Compound concentration 10.0 uM
[4] = biological target: B2 bradykinin receptor (Homo sapiens) (UniProt P30411); details: Compound concentration 10.0 uM
[5] = biological target: D(3) dopamine receptor (Homo sapiens) (UniProt P35462); details: Compound concentration 10.0 uM
[6] = biological target: Purinergic P2Y (Rattus norvegicus) (UniProt O35811+Q9EPX4+P49651+Q63371+P41232+O35881+Q6GUG4); details: Compound concentration 10.0 uM
[7] = biological target: Glutamate receptor ionotropic, kainate (Rattus norvegicus) (UniProt P22756+Q01812+P42260+P42264+Q63273); experiment: Inhibition of Glutamate, Kainate at 10 µM in the Eurofins-Panlabs radioligand binding assay (Eurofins_assay_232700); details: Compound concentration 10.0 uM
[8] = biological target: Adenosine receptor A3 (Homo sapiens) (UniProt P0DMS8); details: Compound concentration 10.0 uM
[9] = biological target: Voltage-dependent N-type calcium channel subunit alpha-1B (Homo sapiens) (UniProt Q00975); experiment: Inhibition of Calcium Channel N-Type at 10 µM in the Eurofins-Panlabs radioligand binding assay (Eurofins_assay_216000); details: Rattus norvegicus; Compound concentration 10.0 uM
[10] = biological target: Acetylcholine receptor subunit alpha (Homo sapiens) (UniProt P02708); experiment: Inhibition of Nicotinic Acetylcholine D1, Bungarotoxin at 10 µM in the Eurofins-Panlabs radioligand binding assay (Eurofins_assay_258700); details: Compound concentration 10.0 uM
[11] = biological target: Substance-P receptor (Homo sapiens) (UniProt P25103); experiment: Inhibition of Tachykinin NK1 at 10 µM in the Eurofins-Panlabs radioligand binding assay (Eurofins_assay_255520); parameters: ligand concentration 0.8 nM; details: Compound concentration 10.0 uM
[12] = biological target: Gamma-aminobutyric acid type B receptor subunit 1 (Homo sapiens) (UniProt Q9UBS5); experiment: Inhibition of GABAB1A at compound concentration of 10.0 uM in the Eurofins-Panlabs radioligand binding assay (Eurofins_assay_228610); parameters: ligand concentration 4 nM; details: Compound concentration 10.0 uM

Measured: inhibition

D(2) dopamine receptor (Homo sapiens), sequence (P14416 whole entry): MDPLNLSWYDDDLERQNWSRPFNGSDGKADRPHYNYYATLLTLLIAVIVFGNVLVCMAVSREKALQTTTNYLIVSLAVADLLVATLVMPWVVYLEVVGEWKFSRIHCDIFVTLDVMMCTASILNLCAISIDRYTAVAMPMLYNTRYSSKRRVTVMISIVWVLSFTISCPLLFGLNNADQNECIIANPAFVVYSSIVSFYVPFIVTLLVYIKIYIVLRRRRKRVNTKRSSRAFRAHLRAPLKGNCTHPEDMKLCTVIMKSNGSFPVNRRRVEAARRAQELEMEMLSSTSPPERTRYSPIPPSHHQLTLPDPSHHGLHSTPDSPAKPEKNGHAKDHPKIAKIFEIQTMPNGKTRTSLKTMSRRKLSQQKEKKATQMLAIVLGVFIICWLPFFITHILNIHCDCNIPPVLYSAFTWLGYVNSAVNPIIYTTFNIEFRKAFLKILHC
D(3) dopamine receptor (Homo sapiens), sequence (P35462 whole entry): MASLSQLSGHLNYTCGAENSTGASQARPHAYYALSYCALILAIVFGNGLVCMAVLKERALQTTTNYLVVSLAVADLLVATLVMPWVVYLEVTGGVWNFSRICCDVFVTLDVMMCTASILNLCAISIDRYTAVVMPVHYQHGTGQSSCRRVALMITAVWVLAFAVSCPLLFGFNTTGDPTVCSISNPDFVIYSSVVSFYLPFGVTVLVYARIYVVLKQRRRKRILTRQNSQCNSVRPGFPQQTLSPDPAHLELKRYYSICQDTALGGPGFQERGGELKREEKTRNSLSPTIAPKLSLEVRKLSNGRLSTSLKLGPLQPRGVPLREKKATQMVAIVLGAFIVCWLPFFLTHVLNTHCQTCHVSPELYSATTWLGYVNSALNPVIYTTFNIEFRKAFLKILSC
B2 bradykinin receptor (Homo sapiens), sequence (P30411 whole entry): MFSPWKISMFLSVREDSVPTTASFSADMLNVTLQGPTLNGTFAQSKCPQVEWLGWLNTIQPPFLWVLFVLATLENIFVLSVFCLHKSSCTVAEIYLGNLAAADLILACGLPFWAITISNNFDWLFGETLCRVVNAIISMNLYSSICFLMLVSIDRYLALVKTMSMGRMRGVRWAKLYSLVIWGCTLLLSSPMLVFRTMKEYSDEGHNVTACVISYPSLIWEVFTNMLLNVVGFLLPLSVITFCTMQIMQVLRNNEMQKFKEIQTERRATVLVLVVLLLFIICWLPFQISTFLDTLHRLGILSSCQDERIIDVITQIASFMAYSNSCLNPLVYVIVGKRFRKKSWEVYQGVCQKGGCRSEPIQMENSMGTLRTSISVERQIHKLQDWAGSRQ
Substance-P receptor (Homo sapiens), sequence (P25103 whole entry): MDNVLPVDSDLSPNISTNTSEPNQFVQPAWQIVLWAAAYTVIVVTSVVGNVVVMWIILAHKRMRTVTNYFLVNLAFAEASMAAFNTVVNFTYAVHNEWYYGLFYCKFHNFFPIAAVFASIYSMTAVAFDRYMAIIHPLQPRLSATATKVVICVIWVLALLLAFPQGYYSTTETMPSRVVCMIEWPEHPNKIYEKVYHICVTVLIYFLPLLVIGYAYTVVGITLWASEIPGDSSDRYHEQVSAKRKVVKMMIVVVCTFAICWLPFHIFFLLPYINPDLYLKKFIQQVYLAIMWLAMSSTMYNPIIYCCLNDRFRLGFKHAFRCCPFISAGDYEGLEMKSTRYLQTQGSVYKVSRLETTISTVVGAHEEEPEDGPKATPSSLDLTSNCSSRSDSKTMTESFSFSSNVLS
Acetylcholine receptor subunit alpha (Homo sapiens), sequence (P02708 whole entry): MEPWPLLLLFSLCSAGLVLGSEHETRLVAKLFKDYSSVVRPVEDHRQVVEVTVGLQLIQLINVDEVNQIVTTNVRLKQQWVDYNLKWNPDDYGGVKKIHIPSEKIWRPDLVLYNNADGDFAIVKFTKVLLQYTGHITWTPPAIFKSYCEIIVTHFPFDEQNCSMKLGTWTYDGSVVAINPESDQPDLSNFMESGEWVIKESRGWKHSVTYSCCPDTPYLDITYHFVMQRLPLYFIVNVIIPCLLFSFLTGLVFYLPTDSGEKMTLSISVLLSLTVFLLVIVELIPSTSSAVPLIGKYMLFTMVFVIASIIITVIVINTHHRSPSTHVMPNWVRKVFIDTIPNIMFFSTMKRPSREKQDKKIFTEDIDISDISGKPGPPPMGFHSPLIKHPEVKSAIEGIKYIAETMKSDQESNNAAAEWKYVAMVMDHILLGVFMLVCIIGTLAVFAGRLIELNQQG
Gamma-aminobutyric acid type B receptor subunit 1 (Homo sapiens), sequence (Q9UBS5 whole entry): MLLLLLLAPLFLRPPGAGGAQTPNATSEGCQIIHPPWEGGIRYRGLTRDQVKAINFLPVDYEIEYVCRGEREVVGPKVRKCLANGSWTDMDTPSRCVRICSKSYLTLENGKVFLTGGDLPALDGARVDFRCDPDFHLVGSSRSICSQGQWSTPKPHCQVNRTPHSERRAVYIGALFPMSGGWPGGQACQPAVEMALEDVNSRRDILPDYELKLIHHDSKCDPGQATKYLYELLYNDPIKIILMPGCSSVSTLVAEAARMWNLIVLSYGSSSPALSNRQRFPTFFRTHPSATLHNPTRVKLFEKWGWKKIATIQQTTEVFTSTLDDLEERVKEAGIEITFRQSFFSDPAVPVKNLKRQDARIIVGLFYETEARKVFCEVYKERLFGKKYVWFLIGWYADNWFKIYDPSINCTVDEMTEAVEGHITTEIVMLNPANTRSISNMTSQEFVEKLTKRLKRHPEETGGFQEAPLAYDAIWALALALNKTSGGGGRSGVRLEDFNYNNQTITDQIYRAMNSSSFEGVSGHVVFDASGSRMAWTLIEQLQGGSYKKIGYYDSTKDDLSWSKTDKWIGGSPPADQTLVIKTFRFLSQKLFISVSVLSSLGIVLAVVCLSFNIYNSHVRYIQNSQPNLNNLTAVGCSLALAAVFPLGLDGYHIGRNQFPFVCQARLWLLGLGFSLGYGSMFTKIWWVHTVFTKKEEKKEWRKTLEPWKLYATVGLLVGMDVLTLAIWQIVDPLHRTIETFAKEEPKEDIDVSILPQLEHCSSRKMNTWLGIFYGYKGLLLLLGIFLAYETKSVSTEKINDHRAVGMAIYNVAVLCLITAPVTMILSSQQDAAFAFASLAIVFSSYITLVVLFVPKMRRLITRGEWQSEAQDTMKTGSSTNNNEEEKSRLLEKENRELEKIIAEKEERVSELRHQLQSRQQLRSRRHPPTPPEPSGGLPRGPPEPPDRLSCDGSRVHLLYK
Adenosine receptor A3 (Homo sapiens), sequence (P0DMS8 whole entry): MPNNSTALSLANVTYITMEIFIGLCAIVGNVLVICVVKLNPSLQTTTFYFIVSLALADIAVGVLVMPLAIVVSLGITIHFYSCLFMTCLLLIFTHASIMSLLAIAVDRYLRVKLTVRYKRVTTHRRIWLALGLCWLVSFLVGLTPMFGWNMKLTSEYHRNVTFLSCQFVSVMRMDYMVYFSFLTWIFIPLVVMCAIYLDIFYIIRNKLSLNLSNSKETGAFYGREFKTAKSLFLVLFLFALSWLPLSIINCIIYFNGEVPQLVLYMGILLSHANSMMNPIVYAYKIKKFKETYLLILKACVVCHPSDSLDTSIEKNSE
Estrogen receptor (Homo sapiens), sequence (P03372 whole entry): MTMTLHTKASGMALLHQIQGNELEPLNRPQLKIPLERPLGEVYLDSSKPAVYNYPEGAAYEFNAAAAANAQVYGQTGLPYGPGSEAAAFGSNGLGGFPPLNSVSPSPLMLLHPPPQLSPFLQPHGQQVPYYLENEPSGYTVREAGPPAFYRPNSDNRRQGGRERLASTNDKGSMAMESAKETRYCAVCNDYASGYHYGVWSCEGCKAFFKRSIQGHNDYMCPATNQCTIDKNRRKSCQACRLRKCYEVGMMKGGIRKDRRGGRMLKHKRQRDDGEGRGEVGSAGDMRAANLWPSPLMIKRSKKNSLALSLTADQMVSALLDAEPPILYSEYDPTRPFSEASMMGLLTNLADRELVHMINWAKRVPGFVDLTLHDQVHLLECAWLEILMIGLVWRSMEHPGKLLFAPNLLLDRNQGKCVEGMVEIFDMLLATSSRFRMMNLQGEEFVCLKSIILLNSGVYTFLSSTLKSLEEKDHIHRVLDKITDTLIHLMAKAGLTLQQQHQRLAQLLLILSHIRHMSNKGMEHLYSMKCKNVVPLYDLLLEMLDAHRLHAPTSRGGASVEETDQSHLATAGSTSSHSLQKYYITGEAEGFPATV

NS(=O)(=O)c1cc(NC(=O)Cc2ccccc2)ccc1Oc1cccc(Cl)c1 [BAY-1797]
inactive: Rattus norvegicus 17% | [1] 4% | [2] 15% | [3] 5% | [4] 10% | [5] 28% | [6] 14% | [7] 3% | [8] 47% | [9] 6% | [10] -4% | [11] 4% | [12] 14%
